Laboratory results published in US20040063662A1, “Selenophene anti-tumor agents” (priority 1996, published 2004).

Columns and labels:
[1] = tested on: ACHN; test: NCI human tumor cell panel: ACHN (Renal Cancer); type: cell-based; details: Renal Cancer
[2] = tested on: NCI-H460; test: NCI human tumor cell panel: NCI-H460 (Non-Small Cell Lung Cancer); type: cell-based; details: NCI-H460, Non-Small Cell Lung Cancer
[3] = tested on: HOP-92; test: NCI human tumor cell panel: HOP-92 (Non-Small Cell Lung Cancer)
[4] = tested on: A549/ATCC; test: NCI human tumor cell panel: A549/ATCC (Non-Small Cell Lung Cancer); type: cell-based; details: Non-Small Cell Lung Cancer
[5] = tested on: K-562; test: NCI human tumor cell panel: K-562 (Leukemia); type: cell-based; details: K562, K-562, Leukemia
[6] = tested on: TK-10; test: NCI human tumor cell panel: TK-10 (Renal Cancer); type: cell-based; details: TK-10, Renal Cancer
[7] = tested on: OVCAR-8; test: NCI human tumor cell panel: OVCAR-8 (Ovarian Cancer); type: cell-based; details: OVCAR-8, Ovarian Cancer
[8] = tested on: MCF7/ADR-RES; test: NCI human tumor cell panel: MCF7/ADR-RES (Breast Cancer); type: cell-based; details: Breast Cancer
[9] = tested on: DU-145; test: NCI human tumor cell panel: DU-145 (Prostate Cancer); type: cell-based; details: DU-145, Prostate Cancer
[10] = tested on: HCC-2998; test: NCI human tumor cell panel: HCC-2998 (Colon Cancer); type: cell-based; details: HCC-2998, Colon Cancer
[11] = tested on: MDA-MB-435; test: NCI human tumor cell panel: MDA-MB-435 (Breast Cancer); type: cell-based; details: MDA-MB-435, Breast Cancer
[12] = tested on: SF-295; test: NCI human tumor cell panel: SF-295 (CNS Cancer); type: cell-based; details: SF-295, CNS Cancer
[13] = tested on: LOX IMVI; test: NCI human tumor cell panel: LOX IMVI (Melanoma); type: cell-based; details: Melanoma
[14] = tested on: CCRF-CEM; test: NCI human tumor cell panel: CCRF-CEM (Leukemia); type: cell-based; details: Leukemia
[15] = tested on: U251; test: NCI human tumor cell panel: U251 (CNS Cancer); type: cell-based; details: U-251, U251, CNS Cancer
[16] = tested on: HCT-116; test: NCI human tumor cell panel: HCT-116 (Colon Cancer); type: cell-based; details: HCT-116, Colon Cancer
[17] = tested on: MCF7; test: NCI human tumor cell panel: MCF7 (Breast Cancer); type: cell-based; details: MCF7, Breast Cancer
[18] = tested on: MDA-N; test: NCI human tumor cell panel: MDA-N (Breast Cancer); type: cell-based; details: Breast Cancer
[19] = tested on: PC-3; test: NCI human tumor cell panel: PC-3 (Prostate Cancer); type: cell-based; details: PC-3, Prostate Cancer
[20] = tested on: BT-549; test: NCI human tumor cell panel: BT-549 (Breast Cancer); type: cell-based; details: BT-549, Breast Cancer
[21] = tested on: 786-0; test: NCI human tumor cell panel: 786-0 (Renal Cancer); type: cell-based; details: 786-0, Renal Cancer
[22] = tested on: HS 578T; test: NCI human tumor cell panel: HS 578T (Breast Cancer); type: cell-based; details: Breast Cancer
[23] = tested on: SK-MEL-5; test: NCI human tumor cell panel: SK-MEL-5 (Melanoma); type: cell-based; details: SK-MEL-5, Melanoma
[24] = tested on: RPMI-8226; test: NCI human tumor cell panel: RPMI-8226 (Leukemia); type: cell-based; details: RPMI-8226, Leukemia
[25] = tested on: SNB-19; test: NCI human tumor cell panel: SNB-19 (CNS Cancer); type: cell-based; details: SNB-19, CNS Cancer
[26] = tested on: UACC-257; test: NCI human tumor cell panel: UACC-257 (Melanoma); type: cell-based; details: UACC-257, Melanoma
[27] = tested on: OVCAR-3; test: NCI human tumor cell panel: OVCAR-3 (Ovarian Cancer); type: cell-based; details: OVCAR-3, Ovarian Cancer
[28] = tested on: MOLT-4; test: NCI human tumor cell panel: MOLT-4 (Leukemia); type: cell-based; details: MOLT-4, Leukemia
[29] = tested on: IGROV1; test: NCI human tumor cell panel: IGROV1 (Ovarian Cancer); type: cell-based; details: IGROV-1, IGROV1, Ovarian Cancer
[30] = tested on: M14; test: NCI human tumor cell panel: M14 (Melanoma); type: cell-based; details: M14, Melanoma
[31] = tested on: SNB-75; test: NCI human tumor cell panel: SNB-75 (CNS Cancer); type: cell-based; details: SNB-75, CNS Cancer
[32] = read-out: Log10 GI50 (converted)
[33] = read-out: Log10 TGI (converted)

O=Cc1ccc(-c2ccc(-c3ccc(C=O)s3)[se]2)s1 [NSC 675345]
GI50 [1, 32]: 77.6 µM | IC (TGI) [1, 33]: > 100 µM | GI50 [2, 32]: 0.813 µM | IC (TGI) [2, 33]: > 100 µM | GI50 ([3]; HOP-92, read-out: Log10 GI50 (converted)): 14.5 µM | IC (TGI) ([3]; HOP-92, read-out: Log10 TGI): 55 µM | GI50 [4, 32]: > 100 µM | IC (TGI) [4, 33]: > 100 µM | GI50 [5, 32]: 30.9 µM | IC (TGI) [5, 33]: > 100 µM | GI50 [6, 32]: > 100 µM | IC (TGI) [6, 33]: > 100 µM | GI50 [7, 32]: > 100 µM | IC (TGI) [7, 33]: > 100 µM | GI50 [8, 32]: > 100 µM | IC (TGI) [8, 33]: > 100 µM | GI50 [9, 32]: > 100 µM | IC (TGI) [9, 33]: > 100 µM | GI50 [10, 32]: 2.34 µM | IC (TGI) [10, 33]: 6.92 µM | GI50 [11, 32]: 58.9 µM | IC (TGI) [11, 33]: > 100 µM | GI50 [12, 32]: 38.9 µM | IC (TGI) [12, 33]: > 100 µM | GI50 [13, 32]: > 100 µM | IC (TGI) [13, 33]: > 100 µM | GI50 [14, 32]: > 100 µM | IC (TGI) [14, 33]: > 100 µM | GI50 [15, 32]: 2.29 µM | IC (TGI) [15, 33]: 21.4 µM | GI50 [16, 32]: 4.07 µM | IC (TGI) [16, 33]: > 100 µM | GI50 [17, 32]: 0.724 µM | IC (TGI) [17, 33]: 5.62 µM | GI50 [18, 32]: > 100 µM | IC (TGI) [18, 33]: > 100 µM | GI50 [19, 32]: > 100 µM | IC (TGI) [19, 33]: > 100 µM | GI50 [20, 32]: > 100 µM | IC (TGI) [20, 33]: > 100 µM | GI50 [21, 32]: 11 µM | IC (TGI) [21, 33]: > 100 µM | GI50 [22, 32]: 67.6 µM | IC (TGI) [22, 33]: > 100 µM | GI50 [23, 32]: > 100 µM | IC (TGI) [23, 33]: > 100 µM | GI50 [24, 32]: > 100 µM | IC (TGI) ([24]; read-out: Log10 TGI): > 100 µM | GI50 [25, 32]: 31.6 µM | IC (TGI) [25, 33]: > 100 µM | GI50 [26, 32]: 1.38 µM | IC (TGI) [26, 33]: > 100 µM | GI50 [27, 32]: 2.19 µM | IC (TGI) [27, 33]: > 100 µM | GI50 [28, 32]: > 100 µM | IC (TGI) [28, 33]: > 100 µM | GI50 [29, 32]: 4.37 µM | IC (TGI) [29, 33]: 22.9 µM | GI50 [30, 32]: > 100 µM | IC (TGI) [30, 33]: > 100 µM | GI50 [31, 32]: 52.5 µM | IC (TGI) [31, 33]: > 100 µM
